From US20190275002A1 (priority 2018, published 2019)
Like-named read-outs stand apart in the source and are kept apart here.

What was measured:
[1] = tested on: influenza A virus (strain A/Puerto Rico/8/1934/H1N1); experiment: Viral load in lungs of PR8-infected mice by plaque assay on MDCK cells; assay type: in vivo, C57BL/6J mice; details: for Average viral load (pfu): substances in drinking water (experimental group also intraperitoneal injection)
[2] = tested on: influenza A virus (strain A/Kumamoto/Y5/67 H2N2); details: mouse, in vivo; cited from earlier work
[3] = tested on: influenza A virus (strain A/Hong Kong/X31/68 H3N2); details: lungs of infected mice, 1-MT in drinking water; cited from earlier work
[4] = tested on: influenza A virus (strain A/Aichi/2/1968 H3N2); details: 0.7 M arginine-containing solution, cited from earlier work
[5] = mice lungs, seventh day after intranasal inoculation with 200 pfu PR8 virus
[6] = mice lungs, seventh day after virus inoculation

## CN=C(N)NCCC[C@H](N)C(=O)O.O=C(O)CC(O)(CC(=O)O)C(=O)O [Inhibitor group 1, L-NG-monomethyl arginine citrate]
[1]; […]
  Average viral load (pfu): 4.30 × 10^3 pfu
[1]; mouse, in vivo
  average viral load compared with the control group: significantly lower
[2]
  production of NO-hemoglobin in the lungs: inhibit
  survival rate: effectively increasing

## N=C(NO)NCC[C@H](N)C(=O)O [Inhibitor group 2, N^ω-hydroxy-nor-L-arginine acetate]
[1]; [5]
  Average viral load (pfu): 2.47 × 10^3 pfu
[1]; [6]
  average viral load compared with the control group: significantly lower

## Cn1cc(C[C@H](N)C(=O)O)c2ccccc21 [Inhibitor group 3, 1-methyl-tryptophan]
[1]; [5]
  Average viral load (pfu): 4.37 × 10^3 pfu
[1]; [6]
  average viral load compared with the control group: significantly lower
[3]
  number of activated and functional CD4+ T-cells, influenza-specific CD8+ T-cells and effector memory cells: increased significantly

## N=C(N)NCCC[C@H](N)C(=O)O [arginine]
[4]; pH 4.5, on ice for 30 to 60 minutes
  virus inactivation effect: most potent virus inactivation effect
[4]; pH 5.5, on ice for 30 to 60 minutes
  virus inactivation effect: no virus inactivation effect was detected
